According to patent US10370343B2, “[6,6] Fused bicyclic HDAC8 inhibitors” (FORMA Therapeutics, Inc., priority 2015, dated 2019):

Columns and labels:
[1] = target: T1, Recombinant N-terminal GST tag full-length human HDAC8 (Homo sapiens, UniProt Q9BY41); assay: HDAC8 probe binding assay, time resolved fluorescence (TRF) format; details: compounds grouped by IC50 range (Table 2)
T1 construct: Recombinant N-terminal GST tag full-length human HDAC8; purchased SignalChem H90-30G-1000; host or cells: baculovirus in Sf9 insect cells
T1 sequence (Q9BY41 1-377): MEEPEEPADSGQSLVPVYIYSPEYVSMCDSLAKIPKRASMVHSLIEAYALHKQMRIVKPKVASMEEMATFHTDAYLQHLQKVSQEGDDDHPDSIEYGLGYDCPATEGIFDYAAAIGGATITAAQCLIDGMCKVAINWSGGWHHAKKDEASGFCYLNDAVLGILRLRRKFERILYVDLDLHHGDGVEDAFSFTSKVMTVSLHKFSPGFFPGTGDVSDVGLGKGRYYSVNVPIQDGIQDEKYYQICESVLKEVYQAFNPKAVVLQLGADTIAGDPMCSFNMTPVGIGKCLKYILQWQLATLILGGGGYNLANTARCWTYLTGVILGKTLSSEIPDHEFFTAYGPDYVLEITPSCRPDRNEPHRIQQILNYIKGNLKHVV
Procedure, shortened: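 Probe-binding TRF assay using full-length N-GST human HDAC8 expressed in baculovirus-infected Sf9 cells, incubated 16 h at room temperature and read at 340 nm excitation, 485/535 nm emission. Percent inhibition was normalised to no-enzyme and DMSO controls. IC50 was obtained by 4-parameter logistic fit.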

[2] = target: T2, Full length human recombinant HDAC8 protein (Homo sapiens, UniProt Q9BY41); assay: In vitro histone deacetylase assay: enzymatic HDAC8 electrophoretic mobility shift assay; format: biochemical; details: electrophoretic mobility shift assay; enzyme 1 nM; 2 μM fluorescently labeled peptide substrate RHKK(Ac)-NH2; 25° C.; 12 concentrations; read-out: HDAC8 IC50
T2 construct: Full length human recombinant HDAC8 protein was expressed in baculoviral system; made in house
T2 sequence (Q9BY41 1-377): T1 sequence (Q9BY41 1-377)

| IC50 [1] | IC50 [2] | Structure (SMILES) |
| --- | --- | --- |
| ≤ 25 nM | < 25 nM | O=C(NO)c1ccc2c(c1)N(Cc1cc(C(F)(F)F)ccc1Cl)C(=O)CO2 [Compound I-259, 4-(2-chloro-5-(trifluoromethyl)benzyl)-N-hydroxy-3-oxo-3,4-dihydro-2H-benzo[b][1,4]oxazine-6-carboxamide] |
| ≤ 25 nM | < 25 nM | O=C(NO)c1ccc2c(c1)N(Cc1cccc(SC(F)(F)F)c1)C(=O)CO2 [Compound I-263, N-hydroxy-3-oxo-4-(3-((trifluoromethyl)thio)benzyl)-3,4-dihydro-2H-benzo[b][1,4]oxazine-6-carboxamide] |
| ≤ 25 nM | < 25 nM | O=C(NO)c1ccc2c(c1)N(Cc1ccc(SC(F)(F)F)cc1)C(=O)CO2 [Compound I-264, N-hydroxy-3-oxo-4-(4-((trifluoromethyl)thio)benzyl)-3,4-dihydro-2H-benzo[b][1,4]oxazine-6-carboxamide] |
| 25 to 100 nM | 25 to 100 nM | O=C(NO)c1ccc2c(c1)N(Cc1cccc(C(F)(F)F)c1F)C(=O)CO2 [Compound I-265, 4-(2-fluoro-3-(trifluoromethyl)benzyl)-N-hydroxy-3-oxo-3,4-dihydro-2H-benzo[b][1,4]oxazine-6-carboxamide] |
| 25 to 100 nM | 25 to 100 nM | O=C(NO)c1ccc2c(c1)N(Cc1ccc(F)c(C(F)(F)F)c1)C(=O)CO2 [Compound I-267, 4-(4-fluoro-3-(trifluoromethyl)benzyl)-N-hydroxy-3-oxo-3,4-dihydro-2H-benzo[b][1,4]oxazine-6-carboxamide] |
| 25 to 100 nM | 25 to 100 nM | O=C(NO)c1ccc2c(c1)N(Cc1cc(F)ccc1C(F)(F)F)C(=O)CO2 [Compound I-268, 4-(5-fluoro-2-(trifluoromethyl)benzyl)-N-hydroxy-3-oxo-3,4-dihydro-2H-benzo[b][1,4]oxazine-6-carboxamide] |
| ≤ 25 nM | < 25 nM | O=C(NO)c1ccc2c(c1)N(Cc1ccc(F)cc1Cl)C(=O)CO2 [Compound I-270, 4-(2-chloro-4-fluorobenzyl)-N-hydroxy-3-oxo-3,4-dihydro-2H-benzo[b][1,4]oxazine-6-carboxamide] |
| 25 to 100 nM | 25 to 100 nM | O=C(NO)c1ccc2c(c1)N(Cc1csc(-c3ccccc3)n1)C(=O)CO2 [Compound I-271, N-hydroxy-3-oxo-4-((2-phenylthiazol-4-yl)methyl)-3,4-dihydro-2H-benzo[b][1,4]oxazine-6-carboxamide] |
| ≤ 25 nM | < 25 nM | O=C(NO)c1ccc2c(c1)N(Cc1nc3cc(Cl)ccc3o1)C(=O)CO2 [Compound I-272, 4-((5-chlorobenzo[d]oxazol-2-yl)methyl)-N-hydroxy-3-oxo-3,4-dihydro-2H-benzo[b][1,4]oxazine-6-carboxamide] |
| 25 to 100 nM | 25 to 100 nM | O=C(NO)c1ccc2c(c1)N(Cc1c(F)cccc1Cl)C(=O)CO2 [Compound I-273, 4-(2-chloro-6-fluorobenzyl)-N-hydroxy-3-oxo-3,4-dihydro-2H-benzo[b][1,4]oxazine-6-carboxamide] |
| ≤ 25 nM | < 25 nM | O=C(NO)c1ccc2c(c1)N(Cc1ccc(C(F)(F)F)cc1F)C(=O)CO2 [Compound I-274, 4-(2-fluoro-4-(trifluoromethyl)benzyl)-N-hydroxy-3-oxo-3,4-dihydro-2H-benzo[b][1,4]oxazine-6-carboxamide] |
| 25 to 100 nM | 25 to 100 nM | O=C(NO)c1ccc2c(c1)N(Cc1c(F)cccc1C(F)(F)F)C(=O)CO2 [Compound I-275, 4-(2-fluoro-6-(trifluoromethyl)benzyl)-N-hydroxy-3-oxo-3,4-dihydro-2H-benzo[b][1,4]oxazine-6-carboxamide] |
| 25 to 100 nM | 25 to 100 nM | O=C(NO)c1ccc2c(c1)N(Cc1cc(F)cc(C(F)(F)F)c1)C(=O)CO2 [Compound I-276, 4-(3-fluoro-5-(trifluoromethyl)benzyl)-N-hydroxy-3-oxo-3,4-dihydro-2H-benzo[b][1,4]oxazine-6-carboxamide] |
| 25 to 100 nM | 100 to 1000 nM | O=C(NO)c1ccc2c(c1)N(Cc1ccc(F)cc1C(F)(F)F)C(=O)CO2 [Compound I-277, 4-(4-fluoro-2-(trifluoromethyl)benzyl)-N-hydroxy-3-oxo-3,4-dihydro-2H-benzo[b][1,4]oxazine-6-carboxamide] |
| 25 to 100 nM | 25 to 100 nM | Cn1c(CN2C(=O)COc3ccc(C(=O)NO)cc32)nc2ccc(Cl)cc21 [Compound I-278, 4-((6-chloro-1-methyl-1H-benzo[d]imidazol-2-yl)methyl)-N-hydroxy-3-oxo-3,4-dihydro-2H-benzo[b][1,4]oxazine-6-carboxamide] |
| ≤ 25 nM | 25 to 100 nM | Cc1ccc(CN2C(=O)COc3ccc(C(=O)NO)cc32)c(C)c1 [Compound I-280, 4-(2,4-dimethylbenzyl)-N-hydroxy-3-oxo-3,4-dihydro-2H-benzo[b][1,4]oxazine-6-carboxamide] |
| > 1000 nM | 100 to 1000 nM | CC(C)n1c(CN2C(=O)COc3ccc(C(=O)NO)cc32)nc2ccccc21 [Compound I-281, N-hydroxy-4-((1-isopropyl-1H-benzo[d]imidazol-2-yl)methyl)-3-oxo-3,4-dihydro-2H-benzo[b][1,4]oxazine-6-carboxamide] |
| 25 to 100 nM | 25 to 100 nM | O=C(NO)c1ccc2c(c1)N(Cc1nc3cccnc3n1Cc1ccccc1)C(=O)CO2 [Compound I-284, 4-((3-benzyl-3H-imidazo[4,5-b]pyridin-2-yl)methyl)-N-hydroxy-3-oxo-3,4-dihydro-2H-benzo[b][1,4]oxazine-6-carboxamide] |
| ≤ 25 nM | < 25 nM | COc1ccc2oc(CN3C(=O)COc4ccc(C(=O)NO)cc43)nc2c1 [Compound I-285, N-hydroxy-4-((5-methoxybenzo[d]oxazol-2-yl)methyl)-3-oxo-3,4-dihydro-2H-benzo[b][1,4]oxazine-6-carboxamide] |
| 25 to 100 nM | 25 to 100 nM | Cc1ccc2oc(CN3C(=O)COc4ccc(C(=O)NO)cc43)nc2c1 [Compound I-286, N-hydroxy-4-((5-methylbenzo[d]oxazol-2-yl)methyl)-3-oxo-3,4-dihydro-2H-benzo[b][1,4]oxazine-6-carboxamide] |
| ≤ 25 nM | < 25 nM | O=C(NO)c1ccc2c(c1)N(Cc1nc3ccccc3o1)C(=O)CO2 [Compound I-288, 4-(benzo[d]oxazol-2-ylmethyl)-N-hydroxy-3-oxo-3,4-dihydro-2H-benzo[b][1,4]oxazine-6-carboxamide] |
| ≤ 25 nM | < 25 nM | O=C(NO)c1ccc2c(c1)N(Cc1nc3cc(Cl)ccc3s1)C(=O)CO2 [Compound I-290, 4-((5-chlorobenzo[d]thiazol-2-yl)methyl)-N-hydroxy-3-oxo-3,4-dihydro-2H-benzo[b][1,4]oxazine-6-carboxamide] |
| 25 to 100 nM | 25 to 100 nM | Cc1ccc2nc(CN3C(=O)C(C)(C)Oc4ccc(C(=O)NO)cc43)oc2c1 [Compound I-292, N-hydroxy-2,2-dimethyl-4-((6-methylbenzo[d]oxazol-2-yl)methyl)-3-oxo-3,4-dihydro-2H-benzo[b][1,4]oxazine-6-carboxamide] |
| 25 to 100 nM | < 25 nM | CC1(C)Oc2ccc(C(=O)NO)cc2N(Cc2nc3cc(Cl)ccc3s2)C1=O [Compound I-296, 4-((5-chlorobenzo[d]thiazol-2-yl)methyl)-N-hydroxy-2,2-dimethyl-3-oxo-3,4-dihydro-2H-benzo[b][1,4]oxazine-6-carboxamide] |
| 25 to 100 nM | 100 to 1000 nM | O=C(NO)c1ccc2c(c1)N(c1ccccc1)C(=O)CO2 [Compound I-357, N-hydroxy-3-oxo-4-phenyl-3,4-dihydro-2H-benzo[b][1,4]oxazine-6-carboxamide] |
| 25 to 100 nM | 25 to 100 nM | COc1cccc(N2C(=O)COc3ccc(C(=O)NO)cc32)c1 [Compound I-358, N-hydroxy-4-(3-methoxyphenyl)-3-oxo-3,4-dihydro-2H-1,4-benzoxazine-6-carboxamide] |
